# Experiments:
# [1] = test system: chick chorioallantoic membrane vessel; experiment: Proliferation of chick chorioallantoic membrane vessel; details: 10 μl of 1 μg/μL on glass fiber filter membrane, 24 hours
# Experimental: In this example an experiment of proliferation of chick chorioallantoic membrane vessel was carried out to test suppressing effects of FpAT on angiogenesis.
# The test was performed according to the method described in the reference “Fu Shengfa, Lu yinglin, Zhang Chaoshan et al., A chick chorioallantoic membrane technique to test function of vascular growth factors, Bulletin of the Academy of Military Medical Sciences 1993, 17:294-97”. Fresh fertilized hen eggs were immersed into 0.1% benzalkonium bromide solution at 38° C. for 2 minutes, and then incubated in an incubator at 37.5° C. in a humidity of 60-70% for 3 days. Then the eggs with shell removed were transferred to plate and cultured. The samples were separated into groups and administered when the allantoic membrane grew to about 2 cm^2, 5 chicken embryos per group. 10 μl of FpAT (1 μg/μL), PBS (negative control) was dropped on a glass fiber filter membrane of Φ4 mm, which was placed at distal end of chorioallantoic membrane, and cultured for 24 hours. The results were observed and recorded by taking photos. The experiment was repeated twice.
# [2] = test system: human umbilical vein endothelial cells (HUVECs); experiment: Apoptosis of HUVECs (flow cytometry, DNA Ladder, RT-PCR, Western blotting); type: cell-based; details: 50 μg/ml PBS, 96 hours
# Experimental: Human umbilical cord samples (obtained from Beijing Obstetrics & Gynecology Hospital) was digested with 0.1% collagenase I (available from GIBCO BRL company), followed by a centrifugation (1000 rpm, 10 minutes) to collect human umbilical vein endothelial cells (HUVECs). After suspended in 20% FCS/RPMI1640, the cells were transferred into plastic bottles for culture in CO2 incubator (37° C., 5% CO2). Twelve hours later, unattached cells were discarded by changing medium, and then the remaining cells were cultured conventionally with the medium changed every 3 days. The vehicle (PBS) and FpAT (50 μg/ml PBS) were added separately, and the cells were collected at 96 hours. Flow Cytometry: the cells were digested with 0.04% trypsin-EDTA, collected and washed 3 times with PBS; the cells were suspended by adding 200 μl PBS and aspirated gently to avoid formation of cell mass. 800 μl cold absolute alcohol was added, and then the cells was fixed at 4° C. overnight; and after a centrifugation at 1000×g for 5 min at 4° C., and the supernatant were discarded. The cells were washed twice with PBS, re-suspended with 200 μl PBS containing RNaseA at a concentration of 1 mg/ml, and incubated at 37° C. for 30 minutes. PI staining solution (final concentration of 50 μg/ml) was added, and the well mixed cells were subjected to a reaction at 4° C. for 30 minutes in the dark. The detection was performed on a flow cytometer. DNA Ladder analysis: the cells differently treated (PBS and FpAT) were collected by a centrifugation at 1000 rpm for 5 minutes, and the cells were lysed with lysis solution (10 mM Tris-HCl, 5 mM EDTA, 1% Triton-X 100, 10 mM NaCl, 100 μg/ml protease K), and aspirated repeatedly to cut viscous genomic DNA, which theoretically generates DNA fragments in a uniform size of 20 to 30 kb; phenols and chloroform were used to extract, and after precipitated with absolute ethanol, the total DNA were dissolved in TE or water, and treated with Rnase A at 37° C. for 1˜2 hours. Five microliters was taken for an electrophoresis on 1.8% agarose gel. […]
# [3] = test system: mice liver cancer H22 cells; experiment: Tumor suppression by FpAT and derivative peptides in liver cancer H22 tumor-bearing mouse model (Example 14); type: in vivo, mice of Kunming strain; details: peptides 50 μg/100 μl PBS/injection, angulus oculi medialis vein daily, 7 times; CTX 80 mg/KG; tumors weighed
# Experimental: Ninety 5-week old mice of Kunming strain purchased from Animal Center Of Chinese Academy Of Medical Sciences were inoculated subcutaneously in forelimb with mice liver cancer H22 cells (National Institute for the Control of Pharmaceutical and Biological Products) (5×10^6/100 μl/mouse). On the next day after inoculation, each kind of inoculated cells were divided randomly into […] with 10 mice per group. FpAT (50 μg/100 μl PBS/injection) and 7 kinds of derivative peptides thereof (see Table 5 below for detailed sequence):FpAT-N3d, FpAT-N6d, FpAT-N9d, FpAT-C3d, FpAT-C6d, FpAT-C9d, FpAT-N5d-C4d, and vehicle control (PBS:100 μl/injection) were injected in angulus oculi medialis vein, with CTX (cyclophosphamide) (80 mg/KG) as positive control daily, 7 times in total. The mice were sacrificed by dislocating the neck on the next day after administration was stopped, and the tumors were taken and weighed for a statistical analysis.
substance,measurement,setting,value
"H2N-Asp-Ser-Gly-Glu-Gly-Asp-Phe-Leu-Ala-Glu-Gly-Gly-Gly-Val-Arg-COOH (H-DSGEGDFLAEGGGVR-OH; listed as Homo sapiens) [FpAT, fibrinopeptide A truncated, carboxyl terminal 15 amino acids of fibrinopeptide A]",blood vessel distribution and original blood vessel,[1],inducing disorder of blood vessel distribution and atrophy of original blood vessel
same,blood vessel formation,[1],suppressing remarkably blood vessel formation
same,DNA Ladder in total DNA of HUVECs,[2],presence of plenty of DNA Ladder
same,apoptosis of HUVECs by flow cytometry,[2]; PI staining,presence of an evidence apoptosis peak
same,effect on cell cycle of HUVECs,[2]; flow cytometry,no remarkable effects on cell cycle
same,tumor suppressing rate,[3],65.4%
